Tests used:
Type in all cases: in vivo
[1] = test system: barnyardgrass (Echinochloa crus-galli); assay: Test A preemergence, barnyardgrass; settings: 0 to 100 scale (0 no effect, 100 complete control)
Summary of the method: (§1)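 In a greenhouse, loam–sand potted species were treated with surfactant-formulated compound, preemergence via directed soil spray and postemergence at 2–10 cm height, one- to two-leaf stage. Response assessed visually at about ten days; 100 means complete control.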

[2] = test system: large crabgrass (Digitaria sanguinalis); assay: Test A preemergence, large crabgrass; settings: 0 to 100 scale (0 no effect, 100 complete control)
Summary of the method: as §1

[3] = test system: giant foxtail (Setaria faberi); assay: Test A preemergence, giant foxtail; settings: 0 to 100 scale (0 no effect, 100 complete control)
Summary of the method: as §1

[4] = test system: morningglory (Ipomoea spp.); assay: Test A preemergence, morningglory; settings: 0 to 100 scale (0 no effect, 100 complete control)
Summary of the method: as §1

[5] = test system: pigweed (Amaranthus retroflexus); assay: Test A preemergence, pigweed; settings: 0 to 100 scale (0 no effect, 100 complete control)
Summary of the method: as §1

[6] = test system: velvetleaf (Abutilon theophrasti); assay: Test A preemergence, velvetleaf; settings: 0 to 100 scale (0 no effect, 100 complete control)
Summary of the method: as §1

[7] = test system: wheat (Triticum aestivum); assay: Test A preemergence, wheat; settings: 0 to 100 scale (0 no effect, 100 complete control)
Summary of the method: as §1

corn (Zea mays) [8] = assay: Test A preemergence, corn; settings: 0 to 100 scale (0 no effect, 100 complete control)
Summary of the method: as §1

[9] = test system: barnyardgrass (Echinochloa crus-galli); assay: Test A postemergence, barnyardgrass; settings: 0 to 100 scale (0 no effect, 100 complete control)
Summary of the method: as §1

[10] = test system: large crabgrass (Digitaria sanguinalis); assay: Test A postemergence, large crabgrass; settings: 0 to 100 scale (0 no effect, 100 complete control)
Summary of the method: as §1

[11] = test system: giant foxtail (Setaria faberi); assay: Test A postemergence, giant foxtail; settings: 0 to 100 scale (0 no effect, 100 complete control)
Summary of the method: as §1

[12] = test system: morningglory (Ipomoea spp.); assay: Test A postemergence, morningglory; settings: 0 to 100 scale (0 no effect, 100 complete control)
Summary of the method: as §1

[13] = test system: pigweed (Amaranthus retroflexus); assay: Test A postemergence, pigweed; settings: 0 to 100 scale (0 no effect, 100 complete control)
Summary of the method: as §1

[14] = test system: velvetleaf (Abutilon theophrasti); assay: Test A postemergence, velvetleaf; settings: 0 to 100 scale (0 no effect, 100 complete control)
Summary of the method: as §1

[15] = test system: wheat (Triticum aestivum); assay: Test A postemergence, wheat; settings: 0 to 100 scale (0 no effect, 100 complete control)
Summary of the method: as §1

corn (Zea mays) [16] = assay: Test A postemergence, corn; settings: 0 to 100 scale (0 no effect, 100 complete control)
Summary of the method: as §1

rice (Oryza sativa) = assay: Test B flooded paddy test, rice; settings: Flood, scale 0 to 100
Summary of the method: (§2)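 Step one: raise plants to 2 leaves. Step two: flood pots 3 cm over the soil and apply compound into the water, keeping this depth. Step three: after 13–15 greenhouse days, score visually versus controls, 0–100, where 100 means complete control.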

[17] = test system: umbrella sedge (Cyperus difformis); assay: Test B flooded paddy test, umbrella sedge; settings: Flood, scale 0 to 100
Summary of the method: as §2

[18] = test system: ducksalad (Heteranthera limosa); assay: Test B flooded paddy test, ducksalad; settings: Flood, scale 0 to 100
Summary of the method: as §2

[19] = test system: barnyardgrass (Echinochloa crus-galli); assay: Test B flooded paddy test, barnyardgrass; settings: Flood
Summary of the method: as §2

[20] = 250 g ai/ha, scale 0 to 100 (0 no effect, 100 complete control)

CC1(C)CC([S+]([O-])Cc2c(C(F)(F)Cl)nc3n(c2=O)CCCS3)=NO1 (centres unmarked) [Compound 36]
Plant response rating, Barnyardgrass ([1]; 125 g ai/ha): 0
Plant response rating, Barnyardgrass ([1]; 500 g ai/ha): 60
Plant response rating, Crabgrass, Large ([2]; 125 g ai/ha): 30
Plant response rating, Crabgrass, Large ([2]; 500 g ai/ha): 50
Plant response rating, Foxtail, Giant ([3]; 125 g ai/ha): 30
Plant response rating, Foxtail, Giant ([3]; 500 g ai/ha): 70
Plant response rating, Morningglory ([4]; 125 g ai/ha): 0
Plant response rating, Morningglory ([4]; 500 g ai/ha): 0
Plant response rating, Pigweed ([5]; 125 g ai/ha): 0
Plant response rating, Pigweed ([5]; 500 g ai/ha): 0
Plant response rating, Velvetleaf ([6]; 125 g ai/ha): 0
Plant response rating, Velvetleaf ([6]; 500 g ai/ha): 0
Plant response rating, Wheat ([7]; 125 g ai/ha): 0
Plant response rating, Wheat ([7]; 500 g ai/ha): 0
Plant response rating, Corn (corn (Zea mays) [8]; 125 g ai/ha): 0
Plant response rating, Corn (corn (Zea mays) [8]; 500 g ai/ha): 10
Plant response rating, Barnyardgrass ([9]; 125 g ai/ha): 20
Plant response rating, Barnyardgrass ([9]; 500 g ai/ha): 50
Plant response rating, Crabgrass, Large ([10]; 125 g ai/ha): 30
Plant response rating, Crabgrass, Large ([10]; 500 g ai/ha): 50
Plant response rating, Foxtail, Giant ([11]; 125 g ai/ha): 50
Plant response rating, Foxtail, Giant ([11]; 500 g ai/ha): 60
Plant response rating, Morningglory ([12]; 125 g ai/ha): 0
Plant response rating, Morningglory ([12]; 500 g ai/ha): 30
Plant response rating, Pigweed ([13]; 125 g ai/ha): 0
Plant response rating, Pigweed ([13]; 500 g ai/ha): 0
Plant response rating, Velvetleaf ([14]; 125 g ai/ha): 0
Plant response rating, Velvetleaf ([14]; 500 g ai/ha): 0
Plant response rating, Wheat ([15]; 125 g ai/ha): 0
Plant response rating, Wheat ([15]; 500 g ai/ha): 20
Plant response rating, Corn (corn (Zea mays) [16]; 500 g ai/ha): 0
Plant response rating, Rice (rice (Oryza sativa); 31 g ai/ha): 0
Plant response rating, Rice (rice (Oryza sativa); 62 g ai/ha): 0
Plant response rating, Rice (rice (Oryza sativa); 125 g ai/ha): 0
Plant response rating, Rice (rice (Oryza sativa); 250 g ai/ha): 0
Plant response rating, Sedge, Umbrella ([17]; 31 g ai/ha): 0
Plant response rating, Sedge, Umbrella ([17]; 62 g ai/ha): 0
Plant response rating, Sedge, Umbrella ([17]; 125 g ai/ha): 0
Plant response rating, Sedge, Umbrella ([17]; 250 g ai/ha): 0
Plant response rating, Ducksalad ([18]; 31 g ai/ha): 0
Plant response rating, Ducksalad ([18]; 62 g ai/ha): 0
Plant response rating, Ducksalad ([18]; 125 g ai/ha): 0
Plant response rating, Ducksalad ([18]; 250 g ai/ha): 0
Plant response rating, Barnyardgrass ([19]; 31 g ai/ha, scale 0 to 100): 0
Plant response rating, Barnyardgrass ([19]; 62 g ai/ha, scale 0 to 100): 0
Plant response rating, Barnyardgrass ([19]; 125 g ai/ha, scale 0 to 100): 0
Plant response rating, Barnyardgrass [19, 20]: 0

Cc1cc2nc(C(F)(F)F)c(C[S+]([O-])C3=NOC(C)(C)C3)c(=O)n2o1 (centres unmarked) [Compound 50]
Plant response rating, Barnyardgrass ([1]; 125 g ai/ha): 0
Plant response rating, Barnyardgrass ([1]; 500 g ai/ha): 70
Plant response rating, Crabgrass, Large ([2]; 125 g ai/ha): 0
Plant response rating, Crabgrass, Large ([2]; 500 g ai/ha): 70
Plant response rating, Foxtail, Giant ([3]; 125 g ai/ha): 0
Plant response rating, Foxtail, Giant ([3]; 500 g ai/ha): 70
Plant response rating, Morningglory ([4]; 125 g ai/ha): 0
Plant response rating, Morningglory ([4]; 500 g ai/ha): 0
Plant response rating, Pigweed ([5]; 125 g ai/ha): 0
Plant response rating, Pigweed ([5]; 500 g ai/ha): 0
Plant response rating, Velvetleaf ([6]; 125 g ai/ha): 0
Plant response rating, Velvetleaf ([6]; 500 g ai/ha): 0
Plant response rating, Wheat ([7]; 125 g ai/ha): 0
Plant response rating, Wheat ([7]; 500 g ai/ha): 0
Plant response rating, Corn (corn (Zea mays) [8]; 125 g ai/ha): 0
Plant response rating, Corn (corn (Zea mays) [8]; 500 g ai/ha): 0
Plant response rating, Barnyardgrass ([9]; 125 g ai/ha): 0
Plant response rating, Barnyardgrass ([9]; 500 g ai/ha): 60
Plant response rating, Crabgrass, Large ([10]; 125 g ai/ha): 0
Plant response rating, Crabgrass, Large ([10]; 500 g ai/ha): 50
Plant response rating, Foxtail, Giant ([11]; 125 g ai/ha): 0
Plant response rating, Foxtail, Giant ([11]; 500 g ai/ha): 60
Plant response rating, Morningglory ([12]; 125 g ai/ha): 0
Plant response rating, Morningglory ([12]; 500 g ai/ha): 10
Plant response rating, Pigweed ([13]; 125 g ai/ha): 0
Plant response rating, Pigweed ([13]; 500 g ai/ha): 0
Plant response rating, Velvetleaf ([14]; 125 g ai/ha): 0
Plant response rating, Velvetleaf ([14]; 500 g ai/ha): 0
Plant response rating, Wheat ([15]; 125 g ai/ha): 0
Plant response rating, Wheat ([15]; 500 g ai/ha): 0
Plant response rating, Corn (corn (Zea mays) [16]; 125 g ai/ha): 0
Plant response rating, Corn (corn (Zea mays) [16]; 500 g ai/ha): 30
Plant response rating, Rice (rice (Oryza sativa); 62 g ai/ha): 0
Plant response rating, Rice (rice (Oryza sativa); 250 g ai/ha): 0
Plant response rating, Sedge, Umbrella ([17]; 62 g ai/ha): 0
Plant response rating, Sedge, Umbrella ([17]; 250 g ai/ha): 0
Plant response rating, Ducksalad ([18]; 62 g ai/ha): 0
Plant response rating, Ducksalad ([18]; 250 g ai/ha): 0
Plant response rating, Barnyardgrass ([19]; 62 g ai/ha, scale 0 to 100): 0
Plant response rating, Barnyardgrass [19, 20]: 0

CCn1c(=O)c(C[S+]([O-])C2=NOC(C)(C)C2)nc2ccccc21 (centres unmarked) [Compound 29]
Plant response rating, Barnyardgrass ([1]; 125 g ai/ha): 0
Plant response rating, Barnyardgrass ([1]; 500 g ai/ha): 0
Plant response rating, Crabgrass, Large ([2]; 125 g ai/ha): 0
Plant response rating, Crabgrass, Large ([2]; 500 g ai/ha): 0
Plant response rating, Foxtail, Giant ([3]; 125 g ai/ha): 0
Plant response rating, Foxtail, Giant ([3]; 500 g ai/ha): 0
Plant response rating, Morningglory ([4]; 125 g ai/ha): 0
Plant response rating, Morningglory ([4]; 500 g ai/ha): 0
Plant response rating, Pigweed ([5]; 125 g ai/ha): 0
Plant response rating, Pigweed ([5]; 500 g ai/ha): 0
Plant response rating, Velvetleaf ([6]; 125 g ai/ha): 0
Plant response rating, Velvetleaf ([6]; 500 g ai/ha): 0
Plant response rating, Wheat ([7]; 125 g ai/ha): 0
Plant response rating, Wheat ([7]; 500 g ai/ha): 0
Plant response rating, Corn (corn (Zea mays) [8]; 125 g ai/ha): 0
Plant response rating, Barnyardgrass ([9]; 125 g ai/ha): 10
Plant response rating, Barnyardgrass ([9]; 500 g ai/ha): 20
Plant response rating, Crabgrass, Large ([10]; 125 g ai/ha): 0
Plant response rating, Crabgrass, Large ([10]; 500 g ai/ha): 0
Plant response rating, Foxtail, Giant ([11]; 125 g ai/ha): 0
Plant response rating, Foxtail, Giant ([11]; 500 g ai/ha): 0
Plant response rating, Morningglory ([12]; 125 g ai/ha): 0
Plant response rating, Morningglory ([12]; 500 g ai/ha): 0
Plant response rating, Pigweed ([13]; 125 g ai/ha): 0
Plant response rating, Pigweed ([13]; 500 g ai/ha): 0
Plant response rating, Velvetleaf ([14]; 125 g ai/ha): 0
Plant response rating, Velvetleaf ([14]; 500 g ai/ha): 0
Plant response rating, Wheat ([15]; 125 g ai/ha): 0
Plant response rating, Wheat ([15]; 500 g ai/ha): 0
Plant response rating, Corn (corn (Zea mays) [16]; 125 g ai/ha): 0
Plant response rating, Corn (corn (Zea mays) [16]; 500 g ai/ha): 0
Plant response rating, Rice (rice (Oryza sativa); 31 g ai/ha): 0
Plant response rating, Rice (rice (Oryza sativa); 62 g ai/ha): 0
Plant response rating, Rice (rice (Oryza sativa); 125 g ai/ha): 0
Plant response rating, Rice (rice (Oryza sativa); 250 g ai/ha): 0
Plant response rating, Sedge, Umbrella ([17]; 31 g ai/ha): 0
Plant response rating, Sedge, Umbrella ([17]; 62 g ai/ha): 0
Plant response rating, Sedge, Umbrella ([17]; 125 g ai/ha): 0
Plant response rating, Sedge, Umbrella ([17]; 250 g ai/ha): 0
Plant response rating, Ducksalad ([18]; 31 g ai/ha): 0
Plant response rating, Ducksalad ([18]; 62 g ai/ha): 0
Plant response rating, Ducksalad ([18]; 125 g ai/ha): 0
Plant response rating, Ducksalad ([18]; 250 g ai/ha): 20
Plant response rating, Barnyardgrass ([19]; 31 g ai/ha, scale 0 to 100): 0
Plant response rating, Barnyardgrass ([19]; 62 g ai/ha, scale 0 to 100): 0
Plant response rating, Barnyardgrass ([19]; 125 g ai/ha, scale 0 to 100): 0
Plant response rating, Barnyardgrass [19, 20]: 0

— patent US20100099561A1, “HETEROBICYCLIC ALKYLTHIO-BRIDGED ISOXAZOLINES” (E.I. DU PONT DE NEMOURS AND COMPANY, priority 2008, published 2010)
